The NIST ThermoML archive (doi:10.1016/j.jct.2010.10.009)
Numbers after ± are expanded uncertainties.

Conditions: 298.15 K; Crystal; Vacuum Sublimation Drop (Calvet Microcalorimeter)

molar enthalpy of sublimation: 24.8 ± 0.956 kcal/mol
SMILES: c1ccc2c(c1)CCc1ccccc1C2 [1,2:4,5-dibenzocycloheptane]
